From the NIST ThermoML archive (doi:10.1021/je1003065)
Numbers after ± are expanded uncertainties.

Assay: mn = molality of the nth substance listed, in mol/kg
Settings: Liquid, Vibrating tube method

[Br-].[Li+] [lithium bromide] + CCO
Settings | mass density [kg/m3]
293.15 K, 1024 kPa, m1 = 2.833 | 956.08 ± 1.9
293.15 K, 1034 kPa, m1 = 0.9499 | 850.27 ± 1.7
293.15 K, 5015 kPa, m1 = 3.368 | 986.33 ± 2
293.15 K, 5029 kPa, m1 = 0.9499 | 853.2 ± 1.7
293.15 K, 5201 kPa, m1 = 2.833 | 959.11 ± 1.9
293.15 K, 10003 kPa, m1 = 0.2335 | 812.89 ± 1.6
293.15 K, 10032 kPa, m1 = 2.833 | 962.5 ± 1.9
293.15 K, 10041 kPa, m1 = 0.9499 | 856.81 ± 1.7
293.15 K, 10061 kPa, m1 = 0.5972 | 835.46 ± 1.7
293.15 K, 19924 kPa, m1 = 0.9499 | 863.69 ± 1.7
293.15 K, 20003 kPa, m1 = 0.2335 | 820.16 ± 1.7
293.15 K, 20038 kPa, m1 = 3.368 | 996.51 ± 2
293.15 K, 29895 kPa, m1 = 0.9499 | 870.31 ± 1.8
293.15 K, 29978 kPa, m1 = 3.368 | 1002.69 ± 2
293.15 K, 29993 kPa, m1 = 0.5972 | 849.31 ± 1.7
293.15 K, 39912 kPa, m1 = 0.5972 | 855.69 ± 1.7
293.15 K, 39956 kPa, m1 = 0.2335 | 833.59 ± 1.7
293.15 K, 39985 kPa, m1 = 2.833 | 981.35 ± 2
293.15 K, 40003 kPa, m1 = 0.9499 | 876.7 ± 1.8
293.15 K, 49936 kPa, m1 = 3.368 | 1014.01 ± 2
293.15 K, 49993 kPa, m1 = 0.5972 | 861.83 ± 1.8
293.15 K, 50002 kPa, m1 = 0.9499 | 882.7 ± 1.8
293.15 K, 59924 kPa, m1 = 0.2335 | 845.57 ± 1.8
293.15 K, 60001 kPa, m1 = 2.833 | 992.24 ± 2
293.15 K, 60032 kPa, m1 = 0.9499 | 888.39 ± 1.8
293.15 K, 70032 kPa, m1 = 2.833 | 997.31 ± 2
293.15 K, 70102 kPa, m1 = 0.9499 | 893.78 ± 1.8
293.15 K, 79914 kPa, m1 = 1.462 | 928.13 ± 1.9
293.15 K, 79926 kPa, m1 = 0.2335 | 856.13 ± 1.8
293.15 K, 79956 kPa, m1 = 0.9499 | 898.74 ± 1.8
293.15 K, 79956 kPa, m1 = 2.833 | 1002.13 ± 2
293.15 K, 80104 kPa, m1 = 3.368 | 1029.17 ± 2.1
293.15 K, 89245 kPa, m1 = 0.9499 | 903.13 ± 1.9
293.15 K, 89926 kPa, m1 = 0.5972 | 882.72 ± 1.8
293.15 K, 89954 kPa, m1 = 0.2335 | 860.88 ± 1.8
293.15 K, 89958 kPa, m1 = 2.833 | 1006.83 ± 2
293.15 K, 89963 kPa, m1 = 1.462 | 932.84 ± 1.9
293.15 K, 89989 kPa, m1 = 3.368 | 1033.84 ± 2.1
293.15 K, 99824 kPa, m1 = 1.462 | 937.16 ± 1.9
293.15 K, 99895 kPa, m1 = 3.368 | 1038.46 ± 2.1
293.15 K, 99965 kPa, m1 = 0.9499 | 907.85 ± 1.9
293.15 K, 99965 kPa, m1 = 2.833 | 1011.42 ± 2
293.15 K, 99986 kPa, m1 = 0.2335 | 865.27 ± 1.8
293.16 K, 1250 kPa, m1 = 3.368 | 983.6 ± 2
293.16 K, 19905 kPa, m1 = 0.5972 | 842.47 ± 1.7
293.16 K, 29938 kPa, m1 = 2.833 | 975.41 ± 1.9
293.16 K, 39654 kPa, m1 = 3.368 | 1008.34 ± 2
293.16 K, 69784 kPa, m1 = 0.2335 | 850.96 ± 1.8
293.16 K, 99971 kPa, m1 = 0.5972 | 887.12 ± 1.9
293.17 K, 1430 kPa, m1 = 2.272 | 926.33 ± 1.9
293.17 K, 1504 kPa, m1 = 0.5972 | 829.09 ± 1.7
293.17 K, 4902 kPa, m1 = 2.272 | 928.89 ± 1.9
293.17 K, 4938 kPa, m1 = 0.5972 | 831.68 ± 1.7
293.17 K, 10030 kPa, m1 = 2.272 | 932.58 ± 1.9
293.17 K, 19789 kPa, m1 = 2.272 | 939.24 ± 1.9
293.17 K, 29946 kPa, m1 = 2.272 | 945.75 ± 1.9
293.17 K, 40161 kPa, m1 = 2.272 | 951.9 ± 1.9
293.17 K, 49963 kPa, m1 = 2.272 | 957.45 ± 1.9
293.17 K, 89964 kPa, m1 = 2.272 | 977.54 ± 2
293.17 K, 99958 kPa, m1 = 2.272 | 982.14 ± 2
293.18 K, 60025 kPa, m1 = 2.272 | 962.8 ± 1.9
293.18 K, 69979 kPa, m1 = 2.272 | 967.88 ± 1.9
293.19 K, 79838 kPa, m1 = 2.272 | 972.67 ± 2
298.09 K, 1141 kPa, m1 = 0.5972 | 824.73 ± 1.6
298.1 K, 99589 kPa, m1 = 2.272 | 978.52 ± 2
298.11 K, 60144 kPa, m1 = 1.462 | 914.77 ± 1.9
298.12 K, 39801 kPa, m1 = 1.462 | 902.81 ± 1.8
298.12 K, 39933 kPa, m1 = 2.272 | 947.93 ± 1.9
298.12 K, 49922 kPa, m1 = 1.462 | 908.93 ± 1.8
298.12 K, 49993 kPa, m1 = 2.272 | 953.69 ± 1.9
298.12 K, 60039 kPa, m1 = 2.272 | 959.15 ± 1.9
298.12 K, 99737 kPa, m1 = 3.368 | 1034.98 ± 2.1
298.13 K, 5308 kPa, m1 = 1.462 | 879.29 ± 1.8
298.13 K, 59998 kPa, m1 = 0.5972 | 864.41 ± 1.8
298.13 K, 69983 kPa, m1 = 2.272 | 964.25 ± 1.9
298.13 K, 80661 kPa, m1 = 3.368 | 1025.85 ± 2.1
298.13 K, 89925 kPa, m1 = 2.272 | 973.93 ± 2
298.13 K, 89985 kPa, m1 = 3.368 | 1030.35 ± 2.1
298.14 K, 5004 kPa, m1 = 2.833 | 954.84 ± 1.9
298.14 K, 20004 kPa, m1 = 0.2335 | 816.39 ± 1.6
298.14 K, 30021 kPa, m1 = 2.833 | 971.59 ± 1.9
298.14 K, 70023 kPa, m1 = 2.833 | 993.85 ± 2
298.14 K, 79924 kPa, m1 = 0.2335 | 853.09 ± 1.8
298.15 K, 1023 kPa, m1 = 2.833 | 951.93 ± 1.9
298.15 K, 1045 kPa, m1 = 0.9499 | 845.75 ± 1.7
298.15 K, 1204 kPa, m1 = 0.2335 | 801.78 ± 1.6
298.15 K, 5002 kPa, m1 = 0.2335 | 805.08 ± 1.6
298.15 K, 5004 kPa, m1 = 0.9499 | 848.93 ± 1.7
298.15 K, 5221 kPa, m1 = 0.5972 | 827.89 ± 1.7
298.15 K, 10024 kPa, m1 = 0.9499 | 852.82 ± 1.7
298.15 K, 10064 kPa, m1 = 0.2335 | 808.99 ± 1.6
298.15 K, 19935 kPa, m1 = 2.833 | 965.15 ± 1.9
298.15 K, 19956 kPa, m1 = 0.9499 | 860.13 ± 1.7
298.15 K, 29124 kPa, m1 = 0.2335 | 822.86 ± 1.7
298.15 K, 29945 kPa, m1 = 0.9499 | 866.97 ± 1.8
298.15 K, 29950 kPa, m1 = 2.272 | 941.76 ± 1.9
298.15 K, 29993 kPa, m1 = 0.5972 | 845.75 ± 1.7
298.15 K, 29993 kPa, m1 = 1.462 | 896.53 ± 1.8
298.15 K, 39784 kPa, m1 = 0.9499 | 873.28 ± 1.8
298.15 K, 39830 kPa, m1 = 0.5972 | 852.23 ± 1.7
298.15 K, 39845 kPa, m1 = 2.833 | 977.51 ± 2
298.15 K, 49956 kPa, m1 = 0.2335 | 836.44 ± 1.7
298.15 K, 49963 kPa, m1 = 0.5972 | 858.53 ± 1.8
298.15 K, 50012 kPa, m1 = 0.9499 | 879.42 ± 1.8
298.15 K, 59968 kPa, m1 = 2.833 | 988.68 ± 2
